# Measurements published in patent KR20110129297A, “양친매성 갈롤 유도체를 유효성분으로 포함하는 항균제조성물” (전남대학교산학협력단, priority 2010, dated 2011).
# Entries after “also recorded” stand apart in the source; their conditions may differ. Where two headings read alike, the source gives them in different places.
# Columns and labels:
# [1] = tested on: Helicobacter pylori [헬리코박터 파일로리]; test: Paper disc growth inhibition zone, Helicobacter pylori; assay type: cell-based; conditions: for zone of inhibition at 5 µmol/disc: Helicobacter pylori, read-out: diameter of growth inhibition zone
# [2] = tested on: food spoilage bacteria and pathogens [식품부패균 및 병원성균]; test: Paper disc growth inhibition zone, food spoilage bacteria and pathogens (9 strains); assay type: cell-based; conditions: 5 μmol per disc, solid medium, 12-16 h at 37, 30 or 25 °C depending on strain
# [3] = no test in this patent; mouse allergy test of urushiol derivatives cited (b4); cited from earlier work
# [4] = tested on: food spoilage bacteria and pathogens [식품부패균 및 병원성균]; test: Minimum inhibitory concentration, food spoilage bacteria and pathogens (9 strains); assay type: cell-based; conditions: liquid dilution 1000-4 μg/mL
# [5] = tested on: S. aureus; test: Minimum inhibitory concentration, Staphylococcus aureus; assay type: cell-based; conditions: 37 °C, 12-16 h, inoculum 10^5-10^7 cfu/mL, read-out: minimum inhibition concentration (MIC)
# [6] = tested on: cells causing lung cancer or stomach cancer [폐암이나 위암을 일으키는 세포]; conditions: background statement; cited from earlier work
# [7] = cited master's thesis / KR 2009066135 A; cited from earlier work
# [8] = paper disc, 5 μmol per disc, CO2 incubator 37 °C, 10% CO2, 95% humidity
structure (smiles),measurement,setting,value
"CN(C)[C@@H]1C(O)=C(C(N)=O)C(=O)[C@@]2(O)C(O)=C3C(=O)c4c(O)cccc4[C@@](C)(O)[C@H]3C[C@@H]12 [테트라사이클린, tetracycline]",zone of inhibition at 5 µmol/disc,[1]; [8],9 mm
"CCCCCCCCCCCCCCCCCCCCc1ccc(O)c(O)c1O [EG, 4-eicosyl-1,2,3-benzenetriol]","antimicrobial activity (growth inhibition zone), in words",[2],전혀 항균활성을 보이지 않았다
same,zone of inhibition at 5 µmol/disc,[1]; [8],0 mm
"CC1(C)S[C@@H]2[C@H](NC(=O)[C@H](N)c3ccccc3)C(=O)N2[C@H]1C(=O)O [앰피실린, ampicillin]",zone of inhibition at 5 µmol/disc,[1]; [8],7 mm
"CCCCCCCCCCCCCCCc1ccc(O)c(O)c1O [PDG, 4-pentadecyl-1,2,3-benzenetriol]","antimicrobial activity (growth inhibition zone), in words",[2],전혀 항균활성을 보이지 않았다
same,zone of inhibition at 5 µmol/disc,[1],0 mm
"CCn1cc(C(=O)O)c(=O)c2ccc(C)nc21 [날리디식 에시드, nalidixic acid]",zone of inhibition at 5 µmol/disc,[1]; [8],11 ± 0.2 mm
"CCCCCc1ccc(O)c(O)c1O [PG, 4-pentyl-1,2,3-benzenetriol]","antimicrobial activity (growth inhibition zone), in words",[2],가장 강한 항균활성을 보였다; also recorded: PC와 비슷하거나 그보다 우수한 항균활성을 보였다
same,"allergenicity, in words",[3],알러지 비유발성
same,"antimicrobial activity by minimum inhibition concentration, in words",[4],최소저해농도 결과에 있어서 뛰어난 항균활성을 나타내지 않았다; also recorded: 측쇄가 없는 G보다는 PG가 더 낮은 농도에서 활성을 보였다
same,zone of inhibition at 5 µmol/disc,[1]; [8],26.7 ± 0.6 mm
same,"antimicrobial activity (growth inhibition zone), in words","[1]; paper disc, 5 μmol per disc, compared with other gallol derivatives",가장 강한 항균활성을 보였다
"CCCCCCCCCCc1ccc(O)c(O)c1O [DG, 4-decyl-1,2,3-benzenetriol]",zone of inhibition at 5 µmol/disc,[1]; [8],7 mm
"O=C(O)c1ccccc1 [벤조익 에시드, benzoic acid]",MIC,[5],250 µM
"CC[C@H]1OC(=O)[C@H](C)[C@@H](O[C@H]2C[C@@](C)(OC)[C@@H](O)[C@H](C)O2)[C@H](C)[C@@H](O[C@@H]2O[C@H](C)C[C@H](N(C)C)[C@H]2O)[C@](C)(O)C[C@@H](C)C(=O)[C@H](C)[C@@H](O)[C@]1(C)O [에리스로마이신, erythromycin]",zone of inhibition at 5 µmol/disc,[1]; [8],7 mm
"Oc1cccc(O)c1O [G, pyrogallol]","antimicrobial activity (growth inhibition zone), in words",[2],매우 약한 항균활성을 보였으며
same,"inhibition of cancer cell growth, in words",[6],폐암이나 위암을 일으키는 세포의 생장을 억제시키는 항암작용에도 효과가 있음
same,zone of inhibition at 5 µmol/disc,[1]; [8],0 mm
"CCCCCc1cccc(O)c1O [PC, 3-pentylcatechol]","allergenicity, in words",[3],알러지 비유발성
same,"antimicrobial activity, in words",[7],강한 항균활성을 보였던
same,zone of inhibition at 5 µmol/disc,[1]; [8],31.5 ± 0.5 mm
